{"source": "paper PMC9823097", "about": "“Dysregulation of PRMT5 in chronic lymphocytic leukemia promotes progression with high risk of Richter’s transformation” (Nature Communications, 2023)", "key": {"KARPAS-422": {"system": "KARPAS-422", "experiment": "Anti-proliferative activity, MTS assay, KARPAS-422", "type": "cell-based", "details": "Homo sapiens, DLBCL, read-out: PRT382 IC50 (anti-proliferative)", "experimental": "(§1) Cell proliferation was assessed via MTS (3-[4,5-dimethylthiazol-2-yl]-5-[3-carboxymethoxyphenyl]-2-[4-sulfophenyl]-2H-tetrazolium) assay (Sigma), using the tetrazolium dye […]. Cell apoptosis was evaluated by Annexin V-FITC or PE and propidium iodide (PI) staining using FC500 cytometer (Beckman-Coulter, Indianapolis, IN) following the manufacturer’s procedure (BD Pharmingen, Billerica, MA)[55]. For cell cycle analysis, cells were fixed with cold ethanol overnight and then stained before analysis with 30 μg/mL propidium iodide (Invitrogen) and 200 μg/mL RNase (Sigma-Aldrich) in 0.1 % v/v Triton X-100 (Sigma-Aldrich). Cell cycle data analysis was performed using ModFit LT software (Verity Software House, Topsham, ME)."}, "[1]": {"system": "Granta-519 lymphoma cell line", "experiment": "Reducing sDMA assay (western blot of cellular sDMA) in Granta-519", "type": "cell-based", "details": "for sDMA signal normalized to β-Actin and DMSO control: DMSO = 100", "experimental": "For western blot analysis of Cellular sDMA in Granta-519, one day before the experiment, Granta-519 cells were passaged to a density of 0.5 × 10^6 cells/ml. The next day, Granta-519 cells were spun down at 1500 rpm for 4 min, resuspended in fresh medium at 0.5E6 cells/ml and 3 mL of culture (1.5E6 cells) were seeded into a six-well plate. Eight-point, threefold serial dilutions of compound working stocks were added to cells (3 µl, 1:1000 dilution, DMSO concentration was 0.1%; final top concentration at 1 µM) and incubated for 3 days. Cells incubated with DMSO was used as vehicle control. Cells were harvested 3 days later, resuspended in 15 µL PBS, lysed in 4% SDS, and homogenized by passing through homogenizer column (Omega Biotek, Catalog #: HCR003). Total protein concentrations were determined by BCA assay (ThermoFisher Scientific, Catalog #: 23225). Lysates were mixed with 5× Laemmli buffer and boiled for 5 min. Forty micrograms of total protein was separated on SDS-PAGE gels (Bio-Rad, catalog #: 4568083, 4568043), transferred to PVDF membrane, and blocked with 5% dry milk (Bio-Rad, Catalog #: 1706404) in TBS with 0.1% v/v Tween20 (TBST) for 1 h at room temperature (RT), and incubated with primary antibodies (sDMA: Cell signaling, Catalog #: 13222, 1:3,000; β-actin: sigma, Catalog #: A2228, 1:5000) in 5% dry milk in TBST at 4 °C overnight. The next day, membranes were washed with TBST, 5 × 5 min, and incubated with HRP conjugated seconded antibody (GE Healthcare; Catalog #: NA9341 ML, NA931-1ML; 1:5000) for 2 hours at RT, followed by 5 × 5 min washes with TBST, and incubation with ECL substrates (Bio-Rad, Catalog #: 1705061, 1705062). The chemiluminescent signal was captured with Fluochem HD2 imager (Proteinsimple). SmD3me2s bands were quantified by ImageJ. Signals were normalized to β-Actin and DMSO control. IC50 values were calculated using Graphpad Prism (v9.2.0) ([Inhibitor] vs. normalized response – Variable slope)."}, "CCMCL-1": {"system": "CCMCL-1", "experiment": "Anti-proliferative activity, MTS assay, CCMCL-1", "type": "cell-based", "details": "MCL, read-out: PRT382 IC50 (anti-proliferative)", "experimental": "as §1"}, "[2]": {"experiment": "Tolerability after 5 daily oral doses in WT CD-1 mice", "type": "in vivo", "details": "10, 30 and 100 mg/kg", "experimental": "(§2) For in vitro assays, the compound was stored in a 10 mM solution in DMSO. For in vivo assays, PRT382 was dissolved in a 0.5% methylcellulose, 0.1% tween solution, and administered as oral gavage. For Pharmacokinetic studies, PRT382 was formulated in 0.5% carboxymethylcellulose sodium salt + 0.5%Tween80 as a 1 mg/mL suspension for 10 mg/kg and was administered in a 10 mL/kg dose volume by oral gavage to CD-1 mice. Blood was collected at various time points after dosing into EDTA-K2 tubes, placed on ice, and stored at −80 °C prior to analysis by LC-MS/MS. For biochemical potency and selectivity, PRT382 was solubilized in 100% DMSO and diluted serially threefold. For assessment of selectivity, enzyme activity against a panel of 37 methyltransferases was evaluated using 3H-SAM as a radioligand probe with filtration binding. PRT382 was tested in duplicate at a final concentration of 10 µM. The percent of enzyme activity relative to DMSO control condition was determined for each enzyme."}, "Jurkat": {"system": "Jurkat", "experiment": "Anti-proliferative activity, MTS assay, Jurkat", "type": "cell-based", "details": "Homo sapiens, T-cell line, read-out: PRT382 IC50 (anti-proliferative)", "experimental": "as §1"}, "U-2932": {"system": "U-2932", "experiment": "Anti-proliferative activity, MTS assay, U-2932", "type": "cell-based", "details": "Homo sapiens, U2932, DLBCL, read-out: PRT382 IC50 (anti-proliferative)", "experimental": "as §1"}, "[3]": {"target": "38 other methyltransferases (e.g DNMTs, MLL1-4 complexes, EZH1 and EZH2 complexes, NRMTs, NSD, SUVs, SMYs, SETs, PRDM9), and other members of the PRMT family", "experiment": "Methyltransferase selectivity panel, 3H-SAM radioligand with filtration binding", "type": "biochemical", "experimental": "as §2"}}, "data": [{"compound": "CON=c1nc[nH]c2c1ccn2[C@@H]1O[C@H]([C@H](O)c2ccc(Cl)c(Cl)c2)[C@@H](O)[C@H]1O.Cl", "note": "[PRT382, (2 R,3 S,4 R,5 R)-2-[(R)-(3,4-dichlorophenyl)-hydroxy-methyl]-5-[(4Z)-4-methoxyimino-1H-pyrrolo[2,3-d]pyrimidin-7-yl]tetrahydrofuran-3,4-diol hydrochloride]", "values": [{"measurement": "IC50", "setting": "KARPAS-422", "value": 23, "unit": "nM"}, {"measurement": "sDMA signal normalized to β-Actin and DMSO control", "setting": "[1]; Conc. 0.000457247 µM", "value": 88.6989}, {"measurement": "sDMA signal normalized to β-Actin and DMSO control", "setting": "[1]; Conc. 0.00137174 µM", "value": 97.8569}, {"measurement": "sDMA signal normalized to β-Actin and DMSO control", "setting": "[1]; Conc. 0.00411523 µM", "value": 93.6002}, {"measurement": "sDMA signal normalized to β-Actin and DMSO control", "setting": "[1]; Conc. 0.0123457 µM", "value": 75.2291}, {"measurement": "sDMA signal normalized to β-Actin and DMSO control", "setting": "[1]; Conc. 0.037037 µM", "value": 39.1378}, {"measurement": "sDMA signal normalized to β-Actin and DMSO control", "setting": "[1]; Conc. 0.111111 µM", "value": 15.0036}, {"measurement": "sDMA signal normalized to β-Actin and DMSO control", "setting": "[1]; Conc. 0.333333 µM", "value": 6.086}, {"measurement": "sDMA signal normalized to β-Actin and DMSO control", "setting": "[1]; Conc. 1 µM", "value": 6.863}, {"measurement": "IC50", "setting": "[1]; Homo sapiens, 72 h, Granta-519, 3 days", "value": 27, "unit": "nM"}, {"measurement": "IC50", "setting": "CCMCL-1", "value": 14, "unit": "nM"}, {"measurement": "tolerability", "setting": "[2]", "value": "well-tolerated"}, {"measurement": "observable toxicity", "setting": "[2]; after 5 daily oral doses", "value": "without observable toxicity"}, {"measurement": "IC50", "setting": "Jurkat", "value": "> 1000", "unit": "nM"}, {"measurement": "IC50", "setting": "U-2932", "value": 12, "unit": "nM"}, {"measurement": "IC50", "setting": "[3]; 38 other methyltransferases and other PRMT family members, read-out: IC50 against other methyltransferases", "value": "> 1000", "unit": "nM"}, {"measurement": "inhibition of other tested methyltransferases", "setting": "[3]; PRT382 at 10 uM", "value": "≤ 20", "unit": "%"}]}]}
